Data on 9 molecules can be found in PubChem BioAssay (NCI).

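Compound exposure: 48 hours, 5 concentrations, 96-well plates. At the GI50, growth is halved. TGI is the concentration that stops growth completely.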

What all share (assay): NCI tumour cell line growth inhibition, 48 h
Experiment [1] deals with MDA-N.
Experiment [2] relates to PC-3 prostate.
Experiment [3] deals with M19-MEL melanoma.
Experiment [4] has as its system SNB-78 CNS.
Experiment [5] concerns P388 leukemia.
For experiment [6], the system named is SN12K1 renal.
For experiment [7], the system named is 786-0 renal.

Take `CCOC(=O)NC(Nc1ccc(Cl)cn1)(C(F)(F)F)C(F)(F)F`: the TGI in experiment [1] was more than 100 µM.

As for `CCCOC1OC(CS(=O)(=O)O)C(O)C(O)C1O` (centres undefined), the TGI in experiment [1] and in experiment [2] was more than 100 µM in each case.

Consider `CC(=O)N/C(=C\c1ccc(/C=C(\NC(C)=O)C2=NC3C(=O)c4ccccc4C(=O)C3N2)cc1)C1=NC2C(=O)c3ccccc3C(=O)C2N1` (centres undefined), for which the TGI in experiment [3] and in experiment [4] was more than 100 µM in each case.

With `C=CCc1cccc(/C=N\N=C(/N)NO)c1O`, the TGI in experiment [5] is 3.19 µM; in experiment [4], more than 88.1 µM; in experiment [6] it was 11.6 µM.

For `CCCCN=C1OCc2[nH][nH]c(=O)c21`, the TGI in experiment [3] and in experiment [4] was more than 100 µM each time.

For the molecule `Cc1ccc(C2CC(c3cccc(Nc4ccncc4)c3)=NN2c2ccccc2)cc1` (centres undefined), in experiment [2], the GI50 is 1.59 µM and the TGI is 3.24 µM.

In the case of `CCCCCCCCCCCCCCCC(=O)OC1C(O)C(CO)OC(OC)C1NC(=O)N(CCCl)N=O` (centres undefined), the TGI in experiment [3] is 32.3 µM; in experiment [4], 40.2 µM.

Regarding `O=[As](O)(O)c1ccc2nc3cc([As](=O)(O)O)ccc3nc2c1`, the TGI in experiment [1], in experiment [7] and in experiment [2] was more than 100 µM each time.

As to `C[C@]12CC[C@@H]3c4ccc(OCCN5CCCC5)cc4CC[C@H]3[C@@H]1CCC2=O`, the TGI in experiment [1] was 64.3 µM; in experiment [2], more than 100 µM.
